Data as given in patent publication US20140357655A1, “SPIROINDOLINE DERIVATIVES AS GONADOTROPIN- RELEASING HORMONE RECEPTOR ANTAGONISTS” (Bayer Intellectual Property GmbH, priority 2012, published 2014).
pIC50: −log10 of the molar value.

Molecular target: T1, human GnRH receptor (Homo sapiens, UniProt P30968)
T1 sequence (P30968 1-328): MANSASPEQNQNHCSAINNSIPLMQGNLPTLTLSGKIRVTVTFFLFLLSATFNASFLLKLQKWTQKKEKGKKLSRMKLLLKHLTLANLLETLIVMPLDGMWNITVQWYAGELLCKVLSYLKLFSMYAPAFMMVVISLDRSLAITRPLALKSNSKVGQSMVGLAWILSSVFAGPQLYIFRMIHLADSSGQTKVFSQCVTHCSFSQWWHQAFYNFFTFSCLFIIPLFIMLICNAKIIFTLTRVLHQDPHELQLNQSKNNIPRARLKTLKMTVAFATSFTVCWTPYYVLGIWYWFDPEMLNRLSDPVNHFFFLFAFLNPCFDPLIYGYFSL
Experiment: IP-One HTRF assay with buserelin (at EC80) stimulation
Assay type: cell-based
Settings: CHO cells stably expressing human GnRH receptor, read-out: Potency in IP-One HTRF assay, given as IC50
Excerpt: 2.3. IP-One HTRF® Assay By using homogenous time-resolved fluorescence resonance energy transfer (HTRF), the generation of one component of the GnRH—R signalling cascade can be measured. After stimulation of CHO cells stably expressing human GnRH receptor (established by Prof. Thomas Gudermann, currently University of Marburg, Germany; supplied as frozen cell aliquots by Cell Culture Services, Hamburg, Germany) with the EC80 of the GnRH agonist buserelin, Gq protein-coupled receptor signalling cascade is activated resulting in PLC-dependent cleavage of PIP2 to Inositol-1,4,5-triphosphate (IP3) and Diacylglycerol. The second messenger IP3 is degraded intracellularly to myo-inositol. Inhibition of the final degradation step from Inositol-1-phosphate (IP1) to myo-inositol by addition of lithium chloride leads to accumulation of IP1 in the cells. In cell lysates, IP1 can be detected via an antibody-based HTRF detection technology, where IP1 can displace the FRET acceptor IP1-d2 from binding by Terbium-labelled anti-IP1 antibody as donor resulting in a signal decrease. Compounds were tested for their capability of inhibiting GnRH—R activation by buserelin. For all IP-One HTRF® assays reagents of Cisbio Bioassays (IP-One Tb Jumbo kit, #62IPAPEJ; Cisbio Bioassays, Bagnols sur Cèze Cedex, France) were used.
For the assay, frozen cell aliquots were thawed and a cell suspension (3.33×10^6 cells/mL) containing IP1-d2 (dilution 1:40) was prepared and incubated at 37° C. After 1 h 3 μl of the cell suspension were added to 50 nl of a 100-fold concentrated solution of the test compound in DMSO pre-dispensed in a well of a white low-volume 384-well microtiter plate (Greiner Bio-One, Frickenhausen, Germany). […] Plates were incubated for 1 h at 37° C. and 5% carbon dioxide before the cells were lysed by adding 3 μl Terbium-labelled anti-IP1 antibody (1:40) diluted in Conjugate & Lysis buffer as supplied with the kit. After an incubation for 1 h at 22° C. to enable complete cell lysis and antibody binding to free IP1 or IP1-d2, plates were measured in an HTRF reader, e.g. a RUBYstar, PHERAstar (both BMG Labtechnologies, Offenburg, Germany) or a Viewlux (PerkinElmer LAS, Rodgau-Jügesheim, Germany).
From the fluorescence emissions at 665 nm (FRET) and at 620 nm (background signal of Terbium-antibody), the ratio (emission at 665 nm divided by emission at 620 nm) was calculated and the data were normalized (reaction without test compound=0% inhibition; all other assay components except agonist=100% inhibition). On the same microtiter plate, compounds were tested at 10 different concentrations in the range of 20 μM to 1 nM (20 μM, 6.7 μM, 2.2 μM, 0.74 μM, 0.25 μM, 82 nM, 27 nM, 9.2 nM, 3.1 nM and 1 nM; dilution series prepared before the assay at the level of the 100-fold conc. stock solutions by serial 1:3 dilutions in 100% DMSO) in duplicate values for each concentration. By using an in-house software, the IC50 values were calculated by a 4 parameter fit.

Row | SMILES | pIC50
1 | COC(=O)c1cccc(NC(=O)c2ccc3c(c2)C2(CCS(=O)(=O)CC2)C(C2CC2)N3S(=O)(=O)c2cccc(OC(F)(F)F)c2)c1 (stereo not drawn) [Example 82, methyl 3-{[(2-cyclopropyl-1′,1′-dioxido-1-{[3-(trifluoromethoxy)phenyl]sulfonyl}-1,2,2′,3′,5′,6′-hexahydrospiro[indole-3,4′-thiopyran]-5-yl)carbonyl]amino}benzoate] | 6.22
2 | CC1N(S(=O)(=O)c2ccc(F)cc2)c2ccc(C(=O)NCc3ccccc3C(F)(F)F)cc2C12CCOCC2 (stereo not drawn) [Example 4, 1-[(4-fluorophenyl)sulfonyl]-2-methyl-N-[2-(trifluoromethyl)benzyl]-1,2,2′,3′,5′,6′-hexahydrospiro[indole-3,4′-pyran]-5-carboxamide] | 6.55
3 | O=C(Nc1ccon1)c1ccc2c(c1)C1(CCS(=O)(=O)CC1)C(C1CC1)N2S(=O)(=O)c1ccc(F)cc1 (single isomer, unassigned) [Example 63.2, 2-cyclopropyl-1-[(4-fluorophenyl)sulfonyl]-N-(1,2-oxazol-3-yl)-1,2,2′,3′,5′,6′-hexahydrospiro[indole-3,4′-thiopyran]-5-carboxamide 1′,1′-dioxide] | 5.46
4 | CC1N(S(=O)(=O)c2ccc(F)cc2)c2ccc(C(=O)NCc3ncccc3C(F)(F)F)cc2C12CCOCC2 (single isomer, unassigned) [Example 3.2, 1-[(4-fluorophenyl)sulfonyl]-2-methyl-N-{[3-(trifluoromethyl)pyridin-2-yl]methyl}-1,2,2′,3′,5′,6′-hexahydrospiro[indole-3,4′-pyran]-5-carboxamide] | < 4.70
5 | O=C(NCc1ccccc1C(F)(F)F)c1ccc2c(c1)C1(CCS(=O)(=O)CC1)C(C1CC1)N2S(=O)(=O)c1ccc(OC(F)F)cc1 (stereo not drawn) [Example 92, 2-cyclopropyl-1-{[4-(difluoromethoxy)phenyl]sulfonyl}-N-[2-(trifluoromethyl)benzyl]-1,2,2′,3′,5′,6′-hexahydrospiro[indole-3,4′-thiopyran]-5-carboxamide 1′,1′-dioxide] | 7.51
6 | O=C(NCc1ccccc1C(F)(F)F)c1ccc2c(c1)C1(CCS(=O)(=O)CC1)C(C1CC1)N2S(=O)(=O)c1ccc(F)cc1 (single isomer, unassigned) [Example 32.1, 2-cyclopropyl-1-[(4-fluorophenyl)sulfonyl]-N-[2-(trifluoromethyl)benzyl]-1,2,2′,3′,5′,6′-hexahydrospiro[indole-3,4′-thiopyran]-5-carboxamide 1′,1′-dioxide] | 7.47
7 | COc1cccc(S(=O)(=O)N2c3ccc(C(=O)Nc4cccc(S(=O)(=O)N=C(N(C)C)N(C)C)c4)cc3C3(CCS(=O)(=O)CC3)C2C2CC2)c1 (single isomer, unassigned) [Example 62.1, N-(3-{[bis(dimethylamino)methylidene]sulfamoyl}phenyl)-2-cyclopropyl-1-[(3-methoxyphenyl)sulfonyl]-1,2,2′,3′,5′,6′-hexahydrospiro[indole-3,4′-thiopyran]-5-carboxamide 1′,1′-dioxide] | 5.19
8 | COc1cccc(S(=O)(=O)N2c3ccc(C(=O)NCc4ccccc4F)cc3C3(CCS(=O)(=O)CC3)C2C2CC2)c1 (stereo not drawn) [Example 47, 2-cyclopropyl-N-(2-fluorobenzyl)-1-[(3-methoxyphenyl)sulfonyl]-1,2,2′,3′,5′,6′-hexahydrospiro[indole-3,4′-thiopyran]-5-carboxamide 1′,1′-dioxide] | 6.88
9 | N#Cc1cccc(S(=O)(=O)N2c3ccc(C(=O)Nc4ccon4)cc3C3(CCS(=O)(=O)CC3)C2C2CC2)c1 (stereo not drawn) [Example 80, 1-[(3-cyanophenyl)sulfonyl]-2-cyclopropyl-N-(1,2-oxazol-3-yl)-1,2,2′,3′,5′,6′-hexahydrospiro[indole-3,4′-thiopyran]-5-carboxamide 1′,1′-dioxide] | 6.66
10 | O=C(NCc1ncccc1C(F)(F)F)c1ccc2c(c1)C1(CCS(=O)(=O)CC1)C(C1CC1)N2S(=O)(=O)c1ccc(F)cc1 (single isomer, unassigned) [Example 15.1, 2-cyclopropyl-1-[(4-fluorophenyl)sulfonyl]-N-{[3-(trifluoromethyl)pyridin-2-yl]methyl}-1,2,2′,3′,5′,6′-hexahydrospiro[indole-3,4′-thiopyran]-5-carboxamide 1′,1′-dioxide] | < 4.70
11 | Cc1ccc(NC(=O)c2ccc3c(c2)C2(CCS(=O)(=O)CC2)C(C2CC2)N3S(=O)(=O)c2ccc(F)cc2)nc1 (stereo not drawn) [Example 29, 2-cyclopropyl-1-[(4-fluorophenyl)sulfonyl]-N-(5-methylpyridin-2-yl)-1,2,2′,3′,5′,6′-hexahydrospiro[indole-3,4′-thiopyran]-5-carboxamide 1′,1′-dioxide] | < 4.70
12 | O=C(NCc1ccc(F)cc1Cl)c1ccc2c(c1)C1(CCS(=O)(=O)CC1)C(C1CC1)N2S(=O)(=O)c1ccc(F)cc1 (stereo not drawn) [Example 16, N-(2-chloro-4-fluorobenzyl)-2-cyclopropyl-1-[(4-fluorophenyl)sulfonyl]-1,2,2′,3′,5′,6′-hexahydrospiro[indole-3,4′-thiopyran]-5-carboxamide 1′,1′-dioxide] | 7.13
13 | COc1cccc(S(=O)(=O)N2c3ccc(C(=O)NCc4ccccc4C(F)(F)F)cc3C3(CCS(=O)(=O)CC3)C2C2CC2)c1 (single isomer, unassigned) [Example 40.2, 2-cyclopropyl-1-[(3-methoxyphenyl)sulfonyl]-N-[2-(trifluoromethyl)benzyl]-1,2,2′,3′,5′,6′-hexahydrospiro[indole-3,4′-thiopyran]-5-carboxamide 1′,1′-dioxide] | 6.20
14 | COC(=O)c1cccc(NC(=O)c2ccc3c(c2)C2(CCS(=O)(=O)CC2)C(C2CC2)N3S(=O)(=O)c2ccc(F)cc2)c1 (stereo not drawn) [Example 34, methyl 3-[({2-cyclopropyl-1-[(4-fluorophenyl)sulfonyl]-1′,1′-dioxido-1,2,2′,3′,5′,6′-hexahydrospiro[indole-3,4′-thiopyran]-5-yl}carbonyl)amino]benzoate] | 7.18
15 | O=C(NCC1CCCCC1)c1ccc2c(c1)C1(CCS(=O)(=O)CC1)C(C1CC1)N2S(=O)(=O)c1ccc(F)cc1 (stereo not drawn) [Example 36, N-(cyclohexylmethyl)-2-cyclopropyl-1-[(4-fluorophenyl)sulfonyl]-1,2,2′,3′,5′,6′-hexahydrospiro[indole-3,4′-thiopyran]-5-carboxamide 1′,1′-dioxide] | 6.77
16 | O=C(O)c1cccc(S(=O)(=O)N2c3ccc(C(=O)NCc4ccccc4Cl)cc3C3(CCS(=O)(=O)CC3)C2C2CC2)c1 (single isomer, unassigned) [Example 61.2, 3-({5-[(2-chlorobenzyl)carbamoyl]-2-cyclopropyl-1′,1′-dioxido-2′,3′,5′,6′-tetrahydrospiro[indole-3,4′-thiopyran]-1(2H)-yl}sulfonyl)benzoic acid] | 5.70
17 | CC1N(S(=O)(=O)c2ccc(F)cc2)c2ccc(C(=O)NCc3ccccc3Cl)cc2C12CCOCC2 (single isomer, unassigned) [Example 2.2, N-(2-chlorobenzyl)-1-[(4-fluorophenyl)sulfonyl]-2-methyl-1,2,2′,3′,5′,6′-hexahydrospiro[indole-3,4′-pyran]-5-carboxamide] | 7.08
18 | COc1cccc(S(=O)(=O)N2c3ccc(C(=O)NCc4ncccc4C)cc3C3(CCS(=O)(=O)CC3)C2C2CC2)c1 (single isomer, unassigned) [Example 45.2, 2-cyclopropyl-1-[(3-methoxyphenyl)sulfonyl]-N-[(3-methylpyridin-2-yl)methyl]-1,2,2′,3′,5′,6′-hexahydrospiro[indole-3,4′-thiopyran]-5-carboxamide 1′,1′-dioxide] | 5.35
